A word on the EC50: it is the midpoint of the concentration-response curve. Low readings indicate an effect from little substance, high ones a need for much substance.

Consider 52 molecules from patent USRE49735E1 (BRISTOL-MYERS SQUIBB COMPANY, priority 2010, dated 2023).

“And” between values parts separate entries of the source, which are not always exact repeats. Identical values can stand only once.

The test has as its target human mGluR5A (Homo sapiens, UniProt P41594). Briefly: mGluR5 FLIPR Assay. The format is cell-based. Conditions: positive modulator activity; HEK293 (ZF) cells with human mGluR5A and rat GLAST; Ca++ response to ~EC10 glutamate.

Sequence of human mGluR5A (P41594 21-1180 isoform P41594-2): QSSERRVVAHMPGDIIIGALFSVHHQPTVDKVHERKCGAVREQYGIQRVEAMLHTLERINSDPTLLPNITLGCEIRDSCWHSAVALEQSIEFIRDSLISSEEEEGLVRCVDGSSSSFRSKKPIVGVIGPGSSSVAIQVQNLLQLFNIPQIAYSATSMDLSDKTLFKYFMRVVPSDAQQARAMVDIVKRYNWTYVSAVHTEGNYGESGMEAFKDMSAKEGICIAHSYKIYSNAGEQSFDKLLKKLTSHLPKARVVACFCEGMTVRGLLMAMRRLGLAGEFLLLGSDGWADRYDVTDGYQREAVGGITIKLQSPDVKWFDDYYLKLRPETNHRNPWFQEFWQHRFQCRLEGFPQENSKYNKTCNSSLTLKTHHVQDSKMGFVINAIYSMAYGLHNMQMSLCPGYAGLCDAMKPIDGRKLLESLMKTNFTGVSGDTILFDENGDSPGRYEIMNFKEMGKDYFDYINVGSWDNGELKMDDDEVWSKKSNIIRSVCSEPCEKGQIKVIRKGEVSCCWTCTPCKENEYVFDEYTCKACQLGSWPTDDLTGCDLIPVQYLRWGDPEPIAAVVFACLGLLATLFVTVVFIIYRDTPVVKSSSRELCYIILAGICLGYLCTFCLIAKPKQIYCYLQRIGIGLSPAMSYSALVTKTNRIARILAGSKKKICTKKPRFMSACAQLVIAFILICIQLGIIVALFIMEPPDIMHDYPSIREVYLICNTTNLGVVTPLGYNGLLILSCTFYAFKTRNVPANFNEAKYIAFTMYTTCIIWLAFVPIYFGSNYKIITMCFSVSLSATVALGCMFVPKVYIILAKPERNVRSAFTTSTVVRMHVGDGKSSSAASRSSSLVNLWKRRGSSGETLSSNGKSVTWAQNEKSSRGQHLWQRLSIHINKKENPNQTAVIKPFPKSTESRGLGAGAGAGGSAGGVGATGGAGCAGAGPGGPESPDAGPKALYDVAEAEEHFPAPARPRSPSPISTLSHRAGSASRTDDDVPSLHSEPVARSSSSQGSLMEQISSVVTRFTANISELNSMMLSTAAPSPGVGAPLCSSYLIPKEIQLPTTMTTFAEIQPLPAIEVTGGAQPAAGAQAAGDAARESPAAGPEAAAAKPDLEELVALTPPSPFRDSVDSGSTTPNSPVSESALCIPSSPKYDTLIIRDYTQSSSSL

In the case of `O=C1N[C@@H](c2cncc(C#Cc3ccccc3)c2)[C@H](c2ccnnc2)O1` (single isomer, unassigned) [Example 321], the EC50 is greater than 1000 nM.

For `Cc1ccc([C@@H]2OC(=O)N[C@H]2c2cccc(C#Cc3ccccc3)c2)cc1C` (single isomer, unassigned) [Example 102], the EC50 is greater than 1000 nM.

Regarding `O=C1N[C@H](c2cccc(C#Cc3ccccc3)c2)[C@@H](c2nc(-c3ccccn3)no2)O1` [Example 162], the EC50 is greater than 1000 nM.

`C[C@]1(c2cccc(F)c2)OC(=O)N[C@@H]1c1cncc(C#Cc2ccccc2)c1` [Example 222] returned an EC50 of less than 100 nM.

`O=C1N[C@H](c2cccc(C#Cc3cccnc3)c2)[C@H](c2cnccn2)O1` [Example 251]: the concentration for a half-maximal effect (EC50) is greater than 1000 nM.

As to `O=C1N[C@H](c2cc(C#Cc3ccccc3)cnc2F)[C@@H](c2cccc(F)c2)O1` [Example 299, (4R,5R)-4-(2-Fluoro-5-(phenylethynyl)pyridin-3-yl)-5-(3-fluorophenyl)oxazolidin-2-one], the EC50 is less than 100 nM.

As for `COc1ncc(C#Cc2ccccc2)cc1[C@H]1NC(=O)O[C@@H]1c1cccc(F)c1` [Example 300, (4R,5R)-5-(3-Fluorophenyl)-4-(2-methoxy-5-(phenylethynyl)pyridin-3-yl)oxazolidin-2-one], the EC50 is less than 100 nM.

For the molecule `O=C1N[C@H](c2cccc(C#Cc3ccccc3)c2)[C@@H](c2ccccc2F)O1` [Example 109, (4R,5R)-5-(2-fluorophenyl)-4-(3-(phenylethynyl)phenyl)oxazolidin-2-one], the concentration giving a half-maximal response (EC50) is less than 100 nM.

Molecule `O=C1N[C@@H](c2cccc(C#Cc3ccccc3)c2)[C@H](c2ccccc2)O1` (single isomer, unassigned) [Example 96] gave an EC50 of 100 to 1000 nM.

`Cn1nccc1[C@@H]1OC(=O)N[C@H]1c1cncc(C#Cc2ccccc2)c1` [Example 341, (4S,5R)-5-(1-methyl-1H-pyrazol-5-yl)-4-(5-(phenylethynyl)pyridin-3-yl)oxazolidin-2-one] came in with an EC50 greater than 1000 nM.

Turning to `O=C1N[C@@H](c2cc(C#Cc3ccccc3Cl)ccn2)[C@H](c2ccc(F)cc2)O1` (single isomer, unassigned) [Example 352], the EC50 was greater than 1000 nM.

As to `COc1cccc([C@H]2OC(=O)N[C@@H]2c2cccc(C#Cc3cc(F)ccn3)c2)c1` [Example 193], the EC50 was less than 100 nM.

As to `O=C1N[C@@H](c2cccc(C#Cc3ccccc3)c2)[C@H](c2ccccn2)O1` [Example 232], the concentration giving a half-maximal response (EC50) was greater than 1000 nM.

`O=C1N[C@H](c2cncc(C#Cc3cnccn3)c2)[C@@H](c2ccc(F)cc2)O1` [Example 212] displayed an EC50 of less than 100 nM.

Consider `O=C1N[C@H](c2ccnc(C#Cc3cccnc3)c2)[C@@H](c2ccccc2)O1` [Example 23, (4R,5R)-5-Phenyl-4-(2-(pyridin-3-ylethynyl)pyridin-4-yl)oxazolidin-2-one], for which the 50% effective concentration (EC50) was less than 100 nM.

As for `O=C1N[C@H](c2cccc(C#Cc3ccccc3)c2)[C@@H](c2ccccn2)O1` [Example 231], the EC50 was less than 100 nM.

With `O=C1N[C@@H](c2cccc(C#Cc3ccnc(F)c3)n2)[C@H](c2ccc(F)cc2)O1` (single isomer, unassigned) [Example 373], the half-maximal effective concentration (EC50) was greater than 1000 nM.

Regarding `O=C1N[C@H](c2ccnc(C#Cc3cccnc3)c2)[C@@H](c2cccc(F)c2)O1` [Example 258], the EC50 is less than 100 nM.

The molecule `COc1cccc([C@H]2OC(=O)N[C@@H]2c2cccc(C#Cc3cccnc3C#N)c2)c1` [Example 53, 3-((3-((4R,5R)-5-(3-Methoxyphenyl)-2-oxooxazolidin-4-yl)phenyl)ethynyl)picolinonitrile] showed a 50% effective concentration (EC50) greater than 1000 nM.

In the case of `O=C1N[C@H](c2cncc(C#Cc3ccccc3Cl)c2)[C@@H](c2cccc(F)c2)O1` [Example 399, (4R,5R)-4-(5-((2-chlorophenyl)ethynyl)pyridin-3-yl)-5-(3-fluorophenyl)oxazolidin-2-one], the concentration for a half-maximal effect (EC50) is less than 100 nM.

`O=C1N[C@@H](c2cccc(C#Cc3ccccc3)n2)[C@H](c2ccc(F)cc2F)O1` (single isomer, unassigned) [Example 310]: the concentration giving a half-maximal response (EC50) is greater than 1000 nM.

Regarding `O=C1N[C@H](c2cncc(C#Cc3cncnc3)c2)[C@@H](c2cc(F)ccc2F)O1` [Example 395, (4R,5R)-5-(2,5-difluorophenyl)-4-(5-(pyrimidin-5-ylethynyl)pyridin-3-yl)oxazolidin-2-one], the concentration giving a half-maximal response (EC50) is 100 to 1000 nM.

As for `O=C1N[C@H](c2ccnc(C#Cc3ccccc3)n2)[C@@H](c2cc(F)ccc2F)O1` (racemic) [Example 270], the EC50 is greater than 1000 nM.

Take `O=C1N[C@H](c2cc(C#Cc3cccnc3)cnc2F)[C@@H](c2ccc(C(F)(F)F)cc2)O1` [Example 145, (4R,5R)-4-(2-Fluoro-5-(pyridin-3-ylethynyl)pyridin-3-yl)-5-(4-(trifluoromethyl)phenyl)oxazolidin-2-one]: the half-maximal effective concentration (EC50) was less than 100 nM.

On to `O=C1N[C@H](c2cc(C#Cc3cccc(F)n3)cnc2F)[C@@H](c2ccc(F)cc2)O1` [Example 157, (4R,5R)-4-(2-Fluoro-5-((6-fluoropyridin-2-yl)ethynyl)pyridin-3-yl)-5-(4-fluorophenyl)oxazolidin-2-one], for which the concentration for a half-maximal effect (EC50) is less than 100 nM.

`COc1cccc([C@H]2OC(=O)N[C@@H]2c2cccc(C#Cc3cccc(Cl)c3)c2)c1` [Example 262] had an EC50 of 100 to 1000 nM.

With `C[C@@]1(c2cncc(C#Cc3ccccc3)c2)NC(=O)O[C@H]1c1ccc(F)cc1` [Example 220], the half-maximal effective concentration (EC50) lay in the range of 100 to 1000 nM.

`O=C1N[C@@H](c2cccc(C#Cc3cccc(F)c3)n2)[C@H](c2ccccc2)O1` (single isomer, unassigned) [Example 13] had a concentration for a half-maximal effect (EC50) greater than 1000 nM.

`O=C1N[C@H](c2cncc(C#Cc3cccc(F)n3)c2)[C@@H](c2ccc(F)cc2)O1` [Example 216] had an EC50 of less than 100 nM.

`O=C1N[C@H](c2cc(C#Cc3ccnc(C4CC4)c3)cnc2F)[C@@H](c2ccc(Cl)cc2)O1` [Example 150, (4R,5R)-5-(4-Chlorophenyl)-4-(5-((2-cyclopropylpyridin-4-yl)ethynyl)-2-fluoropyridin-3-yl)oxazolidin-2-one] came in with a 50% effective concentration (EC50) greater than 1000 nM.

The molecule `O=C1N[C@H](c2ccnc(C#Cc3ccccn3)c2)[C@@H](c2ccccc2)O1` [Example 22, (4R,5R)-5-Phenyl-4-(2-(pyridin-2-ylethynyl)pyridin-4-yl)oxazolidin-2-one] came in with a concentration for a half-maximal effect (EC50) greater than 1000 nM.

Take `O=C1N[C@@H](c2cccc(C#Cc3cccnc3)c2)[C@@H](c2cnccn2)O1` [Example 250]: the concentration for a half-maximal effect (EC50) is greater than 1000 nM.

As to `COc1cccc([C@H]2OC(=O)N[C@@H]2c2cccc(C#Cc3cccnc3Cl)c2)c1` [Example 85, (4R,5R)-4-(3-((2-Chloropyridin-3-yl)ethynyl)phenyl)-5-(3-methoxyphenyl)oxazolidin-2-one], the EC50 was greater than 1000 nM.

With `C[C@@]1(c2ccc(F)cc2)OC(=O)N[C@H]1c1cncc(C#Cc2ccccc2)c1` [Example 204], the EC50 was less than 100 nM.

In turn, `O=C1N[C@H](c2cncc(C#Cc3cnccn3)c2)[C@@H](c2cc(F)ccc2F)O1` [Example 396, (4R,5R)-5-(2,5-difluorophenyl)-4-(5-(pyrazin-2-ylethynyl)pyridin-3-yl)oxazolidin-2-one] came in with an EC50 of less than 100 nM.

On to `O=C1N[C@H](c2cncc(C#Cc3ccccc3Cl)c2)[C@@H](c2cccc(F)c2F)O1` [Example 287], for which the EC50 lay within 100 to 1000 nM.

`C[C@]1(c2cc(F)ccc2F)OC(=O)N[C@@H]1c1cncc(C#Cc2ccccc2)c1` [Example 289] showed an EC50 of less than 100 nM.

As for `O=C1N[C@H](c2cncc(C#Cc3cccnc3)c2)[C@@H](c2cc(F)cc(F)c2)O1` [Example 181], the half-maximal effective concentration (EC50) was 100 to 1000 nM and 279 nM.

For `O=C1N[C@H](c2cncc(C#Cc3ccccc3)c2)[C@@H](c2ccc(F)cc2F)O1` [Example 179], the EC50 was less than 100 nM.

The molecule `O=C1N[C@@H](c2cccc(C#Cc3ccccc3)c2)[C@H](c2nc(-c3ccccn3)no2)O1` [Example 163] yielded a 50% effective concentration (EC50) greater than 1000 nM.

`C[C@]1(c2cccc(C#Cc3ccccc3)n2)NC(=O)O[C@H]1c1ccccc1F` (single isomer, unassigned) [Example 377] had an EC50 greater than 1000 nM.

Molecule `O=C1N[C@H](c2cc(C#Cc3ncccc3F)cnc2F)[C@@H](c2cccc(F)c2)O1` [Example 147, (4R,5R)-4-(2-Fluoro-5-((3-fluoropyridin-2-yl)ethynyl)pyridin-3-yl)-5-(3-fluorophenyl)oxazolidin-2-one] came in with an EC50 greater than 1000 nM.

`COc1cncc(C#Cc2cccc([C@H]3NC(=O)O[C@@H]3c3cccc(OC)c3)c2)c1` [Example 49] displayed a concentration giving a half-maximal response (EC50) greater than 1000 nM.

On to `O=C1NC(c2cccc(C#Cc3ccccc3)c2)C(c2cccc(O)c2)O1` [Example 380, (4R,5R)-5-(3-Hydroxyphenyl)-4-(3-phenylethynyl)phenyl)oxazolidin-2-one], for which the EC50 is less than 100 nM.

Turning to `COc1cccc([C@@H]2OC(=O)N[C@H]2c2cccc(C#Cc3cccc(C(F)(F)F)c3)c2)c1` [Example 130, (4S,5S)-5-(3-methoxyphenyl)-4-(3-((3-(trifluoromethyl)phenyl)ethynyl)phenyl)oxazolidin-2-one], the EC50 is greater than 1000 nM.

For `O=C1N[C@H](c2cncc(C#Cc3cnccn3)c2)[C@@H](c2ccc(F)c(F)c2F)O1` [Example 296], the concentration giving a half-maximal response (EC50) was less than 100 nM.

Consider `O=C1N[C@H](c2cncc(C#Cc3cncc(F)c3)c2)[C@@H](c2ccc(F)c(F)c2)O1` [Example 175], for which the EC50 was less than 100 nM.

Take `O=C1N[C@H](c2cncc(C#Cc3ccc(F)cc3)c2)[C@@H](c2cccc(F)c2F)O1` [Example 286]: the EC50 is less than 100 nM.

The molecule `COC(=O)c1ccc(C#Cc2cccc([C@H]3NC(=O)O[C@@H]3c3cccc(OC)c3)c2)cc1` [Example 266] had a 50% effective concentration (EC50) of 100 to 1000 nM.

Regarding `O=C1N[C@H](c2cncc(C#Cc3ccccn3)c2)[C@@H](c2ccc(F)cc2)O1` [Example 210], the 50% effective concentration (EC50) was less than 100 nM.

Consider `O=C1N[C@@H](c2cccc(C#Cc3ccccc3)c2)[C@H](c2ccccc2F)O1` [Example 110, (4S,5S)-5-(2-fluorophenyl)-4-(3-(phenylethynyl)phenyl)oxazolidin-2-one], for which the EC50 was greater than 1000 nM.

With `O=C1N[C@H](c2cccc(C#Cc3ccccc3)n2)[C@@H](c2cc(F)cc(F)c2)O1` (single isomer, unassigned) [Example 315], the EC50 was greater than 1000 nM.
